Entries after “also recorded” stand apart in the source; their conditions may differ.
Legend:
[1] = test system: 3T3-L1 mouse adipocytes (3T3-L1小鼠脂肪细胞); assay: Triglyceride content of differentiating 3T3-L1 adipocytes (triglyceride assay kit); assay type: cell-based
[2] = test system: FAO rat hepatocytes (FAO大鼠肝细胞); assay: High-fructose-induced fat accumulation in FAO hepatocytes (triglyceride kit and BCA protein kit); assay type: cell-based; conditions: 24 h, Fig. 5
[3] = Precipitation from culture medium, microscopy, 15 μM (Example 10, Fig. 4); assay type: physicochemical; conditions: incubated with 3T3-L1 cells 6 days
[4] = Precipitation from culture medium, microscopy, 20 μM (Example 11, Fig. 6); assay type: physicochemical; conditions: 24 h incubation with cells
[5] = test system: cells (细胞); assay: Reduction of fat accumulation (general statement, test not specified); assay type: cell-based; conditions: inventors' finding

concentration dependence of inhibition of high-fructose-induced fat accumulation in FAO rat hepatocytes ([2]; R1 0, 0.3, 10, 20 μM, R17 0, 0.1, 0.3, 10 μM): 浓度依赖性地抑制; also recorded: 浓度依赖性地减少
precipitation from culture medium [3]: 从培养基中析出来
precipitation from culture medium [4]: 会从培养基中析出; also recorded: 从培养基中析出来
Structure (SMILES): O=c1c2ccccc2nc2n1CCc1c-2[nH]c2ccccc12 [R1, 吴茱萸次碱]
effect on triglyceride content of 3T3-L1 cells vs DMSO control (DM) ([1]; 1 μM, Fig. 1, significance vs DM): 显著性地降低
inhibition at 3 µM ([1]; Mus musculus, 144 h, 3T3-L1 cells, 3 μM, Day 6, vs DMSO control, mean of three independent experiments, Fig. 2, read-out: reduction of triglyceride content): 34%
concentration dependence of reduction of fat accumulation in 3T3-L1 cells ([1]; R1 0, 0.3, 1, 3, 10, 15 μM, R17 and R18 0, 0.03, 0.1, 0.3, 1, 3 μM, Fig. 2): 浓度依赖性地减少
inhibition at 10 µM ([2]; Hepatocyte, FAO rat hepatocytes, 10 μM, 25 mM fructose, triglyceride per mg protein vs control, mean of three independent experiments, read-out: reduction of high-fructose-induced fat accumulation): 72%
reduction of fat accumulation in cells [5]: 能减少细胞的脂肪蓄积
